molecular target: T1, human capsaicin receptor (Homo sapiens, UniProt Q8NER1); test: Calcium mobilization assay, determination of antagonist activity (Example 6); type: cell-based; settings: Table II; IC50 determined as described in Example 6
T1 construct: pBK-CMV expression construct encoding the full length human capsaicin receptor; expressed in transfected cells
Method in brief: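 Antagonism measured as inhibition of capsaicin-evoked (final concentration = EC50, from an 8-point 1 nM–3 μM curve) Fluo-3 calcium signal in stable hVR1-HEK293 cells. Test compounds at 1–5 μM final, 0.5–6 h dark preincubation at room temperature. IC50 = concentration giving 50% reduction versus agonist-only response.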

T1 sequence (Q8NER1 whole entry): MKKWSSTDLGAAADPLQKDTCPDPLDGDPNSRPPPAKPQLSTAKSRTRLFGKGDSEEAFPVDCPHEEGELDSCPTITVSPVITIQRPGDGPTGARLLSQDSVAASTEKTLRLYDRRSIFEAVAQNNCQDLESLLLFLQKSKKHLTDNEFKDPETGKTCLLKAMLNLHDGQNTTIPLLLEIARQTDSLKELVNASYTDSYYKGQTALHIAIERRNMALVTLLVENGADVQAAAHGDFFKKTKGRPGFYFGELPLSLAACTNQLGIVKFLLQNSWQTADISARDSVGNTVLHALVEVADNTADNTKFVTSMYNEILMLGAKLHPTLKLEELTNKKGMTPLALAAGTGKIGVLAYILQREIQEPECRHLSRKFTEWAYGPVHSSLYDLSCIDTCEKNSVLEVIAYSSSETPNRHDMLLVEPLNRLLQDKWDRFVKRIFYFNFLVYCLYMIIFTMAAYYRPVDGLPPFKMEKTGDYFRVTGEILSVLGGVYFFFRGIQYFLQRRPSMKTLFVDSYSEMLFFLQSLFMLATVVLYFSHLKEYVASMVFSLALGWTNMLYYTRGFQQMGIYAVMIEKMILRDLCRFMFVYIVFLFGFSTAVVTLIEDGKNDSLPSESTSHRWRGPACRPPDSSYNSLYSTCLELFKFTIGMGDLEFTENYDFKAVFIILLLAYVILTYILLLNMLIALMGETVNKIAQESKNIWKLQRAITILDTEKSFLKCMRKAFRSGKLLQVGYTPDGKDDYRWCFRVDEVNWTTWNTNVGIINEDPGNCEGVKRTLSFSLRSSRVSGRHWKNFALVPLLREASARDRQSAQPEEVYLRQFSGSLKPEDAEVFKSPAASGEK

IC50, ≤ 1000 nM:
C[C@@H]1CN(c2ncccc2Cl)CCN1c1cc(-c2cccc(Cl)c2)nc(N2CCOCC2)n1 [Example 481, 4-{4-(3-chlorophenyl)-6-[(2R)-4-(3-chloropyridin-2-yl)-2-methylpiperazin-1-yl]pyrimidin-2-yl}morpholine]
Cc1ccc(-c2cc(N3CCN(c4ncccc4C#N)C[C@H]3C)nc(N3CCOCC3)n2)cc1C [Example 506, 2-{(3R)-4-[6-(3,4-dimethylphenyl)-2-morpholin-4-ylpyrimidin-4-yl]-3-methylpiperazin-1-yl}nicotinonitrile]
C[C@@H]1CN(c2ncccc2C#N)CCN1c1cc(-c2ccc(Cl)cc2)nc(N2CCOCC2)n1 [Example 482, 2-{(3R)-4-[6-(4-chlorophenyl)-2-morpholin-4-ylpyrimidin-4-yl]-3-methylpiperazin-1-yl}nicotinonitrile]
Cc1cc(-c2cc(N3CCN(c4ncccc4Cl)C[C@H]3C)nc(N3CCOCC3)n2)ccc1F [Example 498, 4-[4-[(2R)-4-(3-chloropyridin-2-yl)-2-methylpiperazin-1-yl]-6-(4-fluoro-3-methytphenyl)pyrimidin-2-yl]morpholine]
Cc1ccc(-c2cc(N3CCN(c4ncccc4C)C[C@H]3C)nc(N3CCOCC3)n2)cc1C [Example 507, 4-[4-(3,4-dimethylphenyl)-6-[(2R)-2-methyl-4-(3-methylpyridin-2-yl)piperazin-1-yl]pyrimidin-2-yl}morpholine]

same assay, conditions: Table II; IC50 determined as described in Example 6 (antagonist activity, calcium mobilization)

IC50, ≤ 1000 nM:
C[C@@H]1CCCN1c1nc(-c2ccc(F)c(Cl)c2)cc(N2CCN(c3nccnc3Cl)C[C@@H]2C)n1 [Example 973, 4-(3-chloro-4-fluorophenyl)-6-[(2S)-4-(3-chloropyrazin-2-yl)-2-methylpiperazin-1-yl]-2-[(2R)-2-methylpyrrolidin-1-yl]pyrimidine]
C[C@@H]1CN(c2ncccc2F)CCN1c1cc(-c2ccc(F)c(Cl)c2)nc(Cl)n1 [Example 983, 2-chloro-4-(3-chloro-4-fluorophenyl)-6-[(2R)-4-(3-fluoropyridin-2-yl)-2-methylpiperazin-1-yl]pyrimidine]

same assay, conditions: Table II; determined as described in Example 6 (antagonist activity); "*" = 1 micromolar or less

IC50, ≤ 1000 nM:
O=C(O)C1CCN(c2nc(-c3ccc(F)c(Cl)c3)cc(N3CCN(c4ncccc4C(F)(F)F)CC3)n2)CC1 [Example 799, 1-(4-(3-chloro-4-fluorophenyl)-6-{4-[3-(trifluoromethyl)pyridin-2-yl]piperazin-1-yl}pyrimidin-2-yl)piperidine-4-carboxylic acid]
CC(C)N(C)C1CN(c2nc(-c3ccc(F)c(Cl)c3)cc(N3CCN(c4ncccc4C(F)(F)F)CC3)n2)C1 [Example 811, 1-(4-(3-chloro-4-fluorophenyl)-6-{4-[3-(trifluoromethyl)pyridin-2-yl]piperazin-1-yl}pyrimidin-2-yl)-N-isopropyl-N-methylazetidin-3-amine]
N#Cc1cncc(-c2cc(N3CCN(c4ncccc4C(F)(F)F)CC3)nc(N3CCCC3)n2)c1 [Example 886, 5-(2-pyrrolidin-1-yl-6-{4-[3-(trifluoromethyl)pyridin-2-yl]piperazin-1-yl}pyrimidin-4-yl)nicotinonitrile]
CC1CCCN1c1nc(-c2ccc(F)c(Cl)c2)cc(N2CCN(c3ncc(Cl)cc3Cl)C[C@H]2C)n1 (stereo in doubt) [Example 954, 4-(3-chloro-4-fluorophenyl)-6-[4-(3,5-dichloropyridin-2-yl)-2-methylpiperazin-1-yl]-2-(2-methylpyrrolidin-1-yl)pyrimidine]
CC(=O)c1nc(-c2ccc(F)c(C(C)=O)c2)cc(N2CCN(c3ncccc3C(F)(F)F)CC2)n1 [Example 846, 1-(4-(3-acetyl-4-fluorophenyl)-6-{4-[3-(trifluoromethyl)pyridin-2-yl]piperazin-1-yl}pyrimidin-2-yl)ethanone]
CC1CCCN1c1nc(-c2ccc(F)c(F)c2)cc(N2CCN(c3ncccc3Cl)C[C@@H]2C)n1 (stereo partly drawn) [Example 922, 4-[(2S)-4-(3-chloropyridin-2-yl)-2-methylpiperazin-1-yl]-6-(3,4-difluorophenyl)-2-(2-methylpyrrolidin-1-yl)pyrimidine]
CC1CCCN1c1nc(-c2ccc(F)c(F)c2)cc(N2CCN(c3ncccc3C(F)(F)F)C[C@H]2C)n1 (stereo partly drawn) [Example 792, 4-(3,4-difluorophenyl)-2-(2-methylpyrrolidin-1-yl)-6-{(2R)-2-methyl-4-[3-(trifluoromethyl)pyridin-2-yl]piperazin-1-yl}pyrimidine]
C[C@@H]1CN(c2ncccc2Cl)CCN1c1cc(-c2ccc(Cl)c(F)c2)nc(N2CCC[C@H]2C)n1 [Example 934, 4-(4-chloro-3-fluorophenyl)-6-[(2R)-4-(3-chloropyridin-2-yl)-2-methylpiperazin-1-yl]-2-[(2R)-2-methylpyrrolidin-1-yl]pyrimidine]
CN(C)/C=C\C(=O)c1nc(-c2ccc(F)c(F)c2)cc(N2CCN(c3ncccc3C(F)(F)F)CC2)n1 [Example 878, (2Z)-1-(4-(3,4-difluorophenyl)-6-{4-[3-(trifluoromethyl)pyridin-2-yl]piperazin-1-yl}pyrimidin-2-yl)-3-(dimethylamino)prop-2-en-1-one]
C[C@@H]1CN(c2ncccc2Cl)CCN1c1cc(-c2ccc(F)c(Cl)c2)nc(N2CCC[C@H]2C)n1 [Example 940, 4-(3-chloro-4-fluorophenyl)-6-[(2R)-4-(3-chloropyridin-2-yl)-2-methylpiperazin-1-yl]-2-[(2R)-2-methylpyrrolidin-1-yl]pyrimidine]
C[C@@H]1CN(c2ncccc2Cl)CCN1c1cc(-c2ccc(C#N)cc2)nc(S(C)(=O)=O)n1 [Example 847, 4-[6-[(2R)-4-(3-chloropyridin-2-yl)-2-methylpiperazin-1-yl]-2-(methylsulfonyi)pyrimidin-4-yl]benzonitrile]
C[C@@H]1CN(c2nccnc2Cl)CCN1c1cc(-c2ccc(F)cc2)nc(N2CCC[C@H]2C)n1 [Example 927, 4-[(2R)-4-(3-chloropyrazin-2-yl)-2-methylpiperazin-1-yl]-6-(4-fluorophenyl)-2-[(2R)-2-methylpyrrolidin-1-yl]pyrimidine]

same assay, conditions: Table II; determined as described in Example 6; class symbol

IC50, ≤ 1000 nM:
Cc1ccc(-c2nc(N3CCOCC3)nc(N3CCN(c4ccccn4)CC3)n2)c2ccccc12 [Example 276, 2-(4-methyl-1-naphthyl)-4-morpholin-4-yl-6-(4-pyridin-2-ylpiperazin-1-yl)-1,3,5-triazine]
CC(C)c1cccc(-c2nc(N3CCOCC3)nc(N3CCN(c4ccccn4)CC3)n2)c1 [Example 235, 2-(3-isopropylphenyl)-4-morpholin-4-yl-6-(4-pyridin-2-ylpiperazin-1-yl)-1,3,5-triazine]
CC1CN(c2nc(-c3ccc(F)c(Cl)c3)nc(N3CCN(c4ncccc4C(F)(F)F)CC3)n2)CC(C)O1 (centres unmarked) [Example 266, 2-(3-chloro-4-fluorophenyl)-4-(2,6-dimethylmorpholin-4-yl)-6-{4-[3-(trifluoromethyl)pyridin-2-yl]piperazin-1-yl}-1,3,5-triazine]

same assay, conditions: determined as described in Example 6 (calcium mobilization, antagonist activity); Table II

IC50, ≤ 1000 nM:
CC1CCCN1c1nc(-c2ccc(F)c(F)c2)cc(N2CCN(c3ncccc3F)CC2)n1 (centres unmarked) [Example 748, 4-(3,4-difluorophenyl)-6-[4-(3-fluoropyridin-2-yl)piperazin-1-yl]-2-(2-methylpyrrolidin-1-yl)pyrimidine]
CN(C)C(=O)[C@@H]1CCCN1c1nc(-c2ccc(F)c(Cl)c2)cc(N2CCN(c3ncccc3C(F)(F)F)CC2)n1 [Example 711, 1-(4-(3-chloro-4-fluorophenyl)-6-{4-[3-(trifluoromethyl)pyridin-2-yl]piperazin-1-yl}pyrimidin-2-yl)-N,N-dimethyl-L-prolinamide]
Cc1cccc(-c2cc(N3CCN(c4ncccc4C(F)(F)F)CC3)nc(N3CCCC3C)n2)c1 (centres unmarked) [Example 706, 4-(3-methylphenyl)-2-(2-methylpyrrolidin-1-yl)-6-{4-[3-(trifluoromethyl)pyridin-2-yl]piperazin-1-yl}pyrimidine]
Cc1cc(-c2cc(N3CCN(c4ncccc4Cl)CC3)nc(N3CCOC(C)(C)C3)n2)ccc1F [Example 743, 4-{4-[4-(3-chloropyridin-2-yl)piperazin-1-yl]-6-(4-fluoro-3-methylphenyl)pyrimidin-2-yl]-2,2-dimethylmorpholine]
FC(F)(F)c1cccnc1N1CCN(c2cc(-c3ccccc3)nc(N3CCOCC3)n2)CC1 [Example 574, 4-(4-phenyl-6-{4-[3-(trifluoromethyl)pyridin-2-yl]piperazin-1-yl}pyrimidin-2-yl)morpholine]
Fc1ccc(-c2cc(N3CCN(c4ncccc4C(F)(F)F)CC3)nc(-c3ncco3)n2)cc1Cl [Example 635, 4-(3-chloro-4-fluorophenyl)-2-(1,3-oxazol-2-yl)-6-{4-[3-(trifluoromethyl)pyridin-2-yl]piperazin-1-yl}pyrimidine]
Cc1cccnc1N1CCN(c2cc(-c3ccc(F)c(F)c3)nc(N3CCCC3C)n2)CC1 (centres unmarked) [Example 703, 4-(3,4-difluorophenyl)-6-[4-(3-methylpyridin-2-yl)piperazin-1-yl]-2-(2-methylpyrrolidin-1-yl)pyrimidine]

— US7566712B2, “Biaryl piperazinyl-pyridine analogues” (Neurogen Corporation, priority 2003, dated 2009)
